Measured values taken from US12440493B2, “Combination therapy for treating cancer comprising substituted piperazines” (Eli Lilly and Company, priority 2020, dated 2025).
“And” between values parts separate entries of the source, which are not always exact repeats. Identical values can stand only once.

Legend:
[1] = test system: IDH1(R132H) primary human AML cells; test: AML clearance in peripheral blood (flow cytometry, % hCD33+hCD45+ of total white cells), human AML PDx models in NSG mice; assay type: in vivo; conditions: for AML clearance (% hCD33 + hCD45+ (of total white cells)): QD, PO, each value one animal
Experimental: (§1) Compounds and Formulation. For in vivo studies, each test article is prepared at an appropriate concentration with vehicle. […] Compound A is prepared fresh at the appropriate concentrations with vehicle every 7 days and stored at 4° C. between doses. […] Cytarabine is prepared fresh weekly by dilution with sterile saline from stock solution of Cytarabine (injection 20 mg/mL, (Pfizer injectables')). Azacitidine (Sigma, Lot #MKBR7212) is formulated in sterile water and is prepared fresh daily immediately before dosing. In vivo human AML PDx models. […] Two models are used in the studies: […] As needed, splenocytes from tumor-bearing mice are used to propagate and expand the models, as described. Each test article is prepared as described above at an appropriate concentration with vehicle to give animals the doses tested in this study at a dosing volume of 10 μL/gram body weight. Mice receiving Compound A (PO, QD) are treated at the indicated doses for the duration of the study. The combination agents are dosed as follows: […] Treated mice are assessed in comparison to vehicle treated and naïve (non-tumor bearing) control mice. Body weight is recorded twice per week. […] AML PDx model propagation. […] Spleens are processed and splenocytes isolated as described below. Two hundred μL per subject of the splenocyte prep is injected IV (intravenous, tail vein) into recipient NSG mice. […] Once engraftment is confirmed, the mice are monitored biweekly until ready to be put on study. […] Submandibular blood is collected. Spleen/Splenocyte Processing and Prep. After excision, a spleen is weighed, and […] is placed in a standard sterile 15 mL polypropylene conical tube containing PBS, and placed on ice. […] The spleen is placed in ice cold sterile PBS in a 15 mL collection tube. The spleen is removed from the collection tube and placed in a 100 micron 50 mL conical tube cell strainer (BD Falcon #352360). The spleen is processed by gentle rubbing of the spleen tissue against the surface of the cell strainer with the end of a 5 mL syringe plunger in a circular motion. The surface of the strainer is rinsed with 10 mL room temperature sterile DPBS (HyClone SH30028) 3 times during the process. […] The cell pellet is collected by centrifugation (300×g) and washed three times with 30 mL sterile DPBS. The cells are counted and resuspended in DPBS at the desired implant concentration. Bone Marrow Collection. […] Flow cytometry analysis of human white cells. Submandibular blood samples from in vivo studies are collected. Fluor-conjugated antibody stains are added according to the manufacturer's instructions (anti-human CD33-PE (clone WM53, BD Cat #555450), anti-human CD14-APC (clone MφpP9, BD Cat #340436), anti-human CD15-V450 (clone HI98, BD Cat #561584), anti-human CD117-BV421 (clone YB5.B8, BD Cat #562434), anti-human […]7 (clone ICRF44, BD Cat #557754), anti-human […]7 (clone HI30, BD Cat #557748), and anti-human CD3-FITC (clone SK7, BD Cat #340542)). The samples are incubated for 30 minutes at room temperature, protected from light. After the incubation, 1.5 mL 1×BD Lyse/Fix (37° C., (BD #558049)) is added to each sample and incubated for 12 minutes at room temperature. The tubes are centrifuged at 300×g for 7 minutes. BD Lyse/Fix solution is aspirated and the cell pellet washed with stain/wash buffer 3 times (1 wash step consisted of: pellet resuspended in 3 mL stain/wash buffer, centrifuged at 300×g, aspirated wash). Fixed cells are then resuspended in 300 to 400 μL stain/wash buffer. Samples are analyzed on a Becton Dickinson FACSVerse Flow cytometer (Cat #651155 Serial #Z6511550447) using standard flow cytometry principles and techniques. Samples are analyzed on the same day as they are stained and fixed. Population gating and data analysis of percent population are performed in the FACSuite software on the FACSVerse cytometer. Percent population values from the data analysis are plotted in Graphpad Prism or in JMP13. […]

[2] = test system: IDH1(R132H) primary human AML cells; test: AML cell differentiation in blood (flow cytometry, % hCD33+hCD11b+ of hCD45+ cells), human AML PDx models in NSG mice; assay type: in vivo; conditions: for AML cell differentiation (% hCD33 + hCD11b+ (of hCD45+ cells)): QD, PO
Experimental: as §1

## C=CC(=O)N1CCN([C@@H](CC2CC2)c2ccc([C@H](C)Nc3ncc4c(n3)N(CC)C(=O)OC4)cc2)CC1 [Compound A, 7-[[(1S)-1-[4-[(1S)-2-cyclopropyl-1-(4-prop-2-enoylpiperazin-1-yl)ethyl]phenyl]ethyl]amino]-1-ethyl-4H-pyrimido[4,5-d][1,3]oxazin-2-one]
[1]; Treatment day −8, 10 mg/kg Compound A, 10 mg/kg
  AML clearance (% hCD33 + hCD45+ (of total white cells)): 2.43% and 7.61% and 4.1% and 6.27% and 6.53%
[1]; Treatment day −19, 3.3 mg/kg Compound A, Table 2A, 3.3 mg/kg
  AML clearance (% hCD33 + hCD45+ (of total white cells)): 6.86% and 3.77% and 4.41% and 2.93% and 5.26% and 4.84% and 2.39%
[1]; day 43, group B: Compound A (3.3 mg/kg), azacitidine study, vehicle 71%
  % peripheral blood AML cells (treatment group value): 52%
[1]; day 47, group B: Compound A (3.3 mg/kg), cytarabine study, vehicle 86%
  % peripheral blood AML cells (treatment group value): 39%
[1]; day 50, group B: 1 mg Compound A, vehicle 32%
  % peripheral blood AML cells (treatment group value): 37%
[1]; day 50, group C: 10 mg Compound A, vehicle 32%
  % peripheral blood AML cells (treatment group value): 2.8%
[1]; day 64, group B: 1 mg Compound A, vehicle 67%
  % peripheral blood AML cells (treatment group value): 51%
[1]; day 64, group C: 10 mg Compound A, vehicle 67%
  % peripheral blood AML cells (treatment group value): 1.1%
[1]; day 78, group B: 1 mg Compound A, vehicle 129%
  % peripheral blood AML cells (treatment group value): 65%
[1]; day 78, group C: 10 mg Compound A, vehicle 129%
  % peripheral blood AML cells (treatment group value): 0.66%
[2]; B: 1 mg/kg Compound A, treatment day −8 (before treatment), one animal
  AML cell differentiation (% hCD33 + hCD11b+ (of hCD45+ cells)): 19.01% and 16.75%
[2]; Treatment day 2, 3.3 mg/kg Compound A, Table 2B, each value one animal, 3.3 mg/kg
  AML cell differentiation (% hCD33 + hCD11b+ (of hCD45+ cells)): 14.12% and 16.05% and 13.27% and 10.34% and 11.59% and 13.32% and 14.01%
[2]; Treatment day 15, 3.3 mg/kg Compound A, Table 2B, each value one animal, 3.3 mg/kg
  AML cell differentiation (% hCD33 + hCD11b+ (of hCD45+ cells)): 33.42% and 27.78% and 36.01% and 28.02% and 28.21% and 29.24% and 33.82%
[2]; Treatment day 18, 3.3 mg/kg Compound A, each value one animal, 3.3 mg/kg
  AML cell differentiation (% hCD33 + hCD11b+ (of hCD45+ cells)): 23.96% and 27.78% and 22.27% and 22.38% and 22.41% and 29.38% and 24.62%
[2]; Treatment day 28, 3.3 mg/kg Compound A, Table 2B, each value one animal, 3.3 mg/kg
  AML cell differentiation (% hCD33 + hCD11b+ (of hCD45+ cells)): 35.79% and 36.46% and 33.59% and 39.91% and 37.16% and 40.47%
[2]; Treatment day 34, 3.3 mg/kg Compound A, each value one animal, 3.3 mg/kg
  AML cell differentiation (% hCD33 + hCD11b+ (of hCD45+ cells)): 30.68% and 27.59% and 29.94% and 25.81% and 29.79% and 34.39% and 29.26%
[2]; Treatment day 43, 3.3 mg/kg Compound A, Table 2B, each value one animal, 3.3 mg/kg
  AML cell differentiation (% hCD33 + hCD11b+ (of hCD45+ cells)): 37.51% and 35.22% and 33.33% and 36.61% and 41.32% and 33.68% and 39.34%
[2]; Treatment day 47, 3.3 mg/kg Compound A, each value one animal, 3.3 mg/kg
  AML cell differentiation (% hCD33 + hCD11b+ (of hCD45+ cells)): 37.61% and 35.31% and 38.58% and 39.61% and 31.81% and 41.02% and 35.79%
[2]; Treatment day 58, 3.3 mg/kg Compound A, Table 2B, each value one animal, 3.3 mg/kg
  AML cell differentiation (% hCD33 + hCD11b+ (of hCD45+ cells)): 42.9% and 44.03% and 33.47% and 48.08% and 47.13% and 40.2% and 26.62%
[2]; Treatment day 61, 3.3 mg/kg Compound A, each value one animal, 3.3 mg/kg
  AML cell differentiation (% hCD33 + hCD11b+ (of hCD45+ cells)): 37.61% and 40.23% and 40.06% and 33.82% and 32.55% and 43.95% and 44%
[2]; Treatment day 75, 3.3 mg/kg Compound A, each value one animal, 3.3 mg/kg
  AML cell differentiation (% hCD33 + hCD11b+ (of hCD45+ cells)): 33.98% and 35.9% and 31.38% and 37.53% and 34.66% and 51.92%
[2]; Treatment day 77, 3.3 mg/kg Compound A, Table 2B, each value one animal, 3.3 mg/kg
  AML cell differentiation (% hCD33 + hCD11b+ (of hCD45+ cells)): 56.29% and 46.83% and 42.98% and 48.3% and 51.69% and 48.56%
[2]; Treatment day 89, 3.3 mg/kg Compound A, each value one animal, 3.3 mg/kg
  AML cell differentiation (% hCD33 + hCD11b+ (of hCD45+ cells)): 21.32% and 43.96% and 40.34% and 28.57% and 37.17% and 45.68%
[2]; Treatment day 98, 3.3 mg/kg Compound A, Table 2B, each value one animal, 3.3 mg/kg
  AML cell differentiation (% hCD33 + hCD11b+ (of hCD45+ cells)): 44.09% and 47.66% and 33.67% and 36.45% and 33.6%
[2]; Treatment day −3, 3.3 mg/kg Compound A, each value one animal, 3.3 mg/kg
  AML cell differentiation (% hCD33 + hCD11b+ (of hCD45+ cells)): 11.93% and 12% and 13.59% and 13.22% and 11.07% and 13.07%
[2]; Treatment day −19, 3.3 mg/kg Compound A, Table 2B, each value one animal, 3.3 mg/kg
  AML cell differentiation (% hCD33 + hCD11b+ (of hCD45+ cells)): 1.45% and 2.19% and 0.38% and 2.21% and 0.64% and 0.34% and 0.68%
[2]; day 43, group B: Compound A (3.3 mg/kg), azacitidine study, vehicle 15%
  % AML cell differentiation (treatment group value): 37%
[2]; day 47, group B: Compound A (3.3 mg/kg), cytarabine study, vehicle 10%
  % AML cell differentiation (treatment group value): 37%
[2]; day 50, group B: 1 mg Compound A, vehicle 28%
  % AML cell differentiation (treatment group value): 43%
[2]; day 50, group C: 10 mg Compound A, vehicle 28%
  % AML cell differentiation (treatment group value): 79%
